The NIST ThermoML archive (doi:10.1021/je060271a)

Settings: 283.15 K, Liquid, Vibrating tube method

CCCCCC(=O)OCC(COC(=O)CCCCC)(COC(=O)CCCCC)COC(=O)CCCCC [pentaerythritol tetrahexanoate]
Settings	mass density [kg/m3]
14042 kPa	1012.1
14058 kPa	1012.2
14073 kPa	1012.3
14087 kPa	1012.2
14104 kPa	1012.2
14118 kPa	1012.1
14133 kPa	1012.2
14150 kPa	1012.1
14164 kPa	1012.3
14179 kPa	1012.3
14196 kPa	1012.2
14211 kPa	1012.2
14225 kPa	1012.2
14243 kPa	1012.1
14257 kPa	1012.3
14272 kPa	1012.3
14289 kPa	1012.3
14304 kPa	1012.3
14320 kPa	1012.4
14335 kPa	1012.4
14350 kPa	1012.3
14368 kPa	1012.2
14382 kPa	1012.4
14397 kPa	1012.4
14415 kPa	1012.6
14430 kPa	1012.3
14448 kPa	1012.4
14463 kPa	1012.3
14478 kPa	1012.3
14496 kPa	1012.4
14511 kPa	1012.4
14527 kPa	1012.4
14542 kPa	1012.5
14560 kPa	1012.4
14575 kPa	1012.4
14591 kPa	1012.4
14609 kPa	1012.6
14624 kPa	1012.5
14640 kPa	1012.4
14658 kPa	1012.5
14674 kPa	1012.5
14689 kPa	1012.4
14708 kPa	1012.4
14724 kPa	1012.5
14739 kPa	1012.5
14755 kPa	1012.5
14774 kPa	1012.5
14790 kPa	1012.6
14805 kPa	1012.6
14824 kPa	1012.6
14840 kPa	1012.7
14856 kPa	1012.7
14875 kPa	1012.6
14891 kPa	1012.7
14907 kPa	1012.7
14926 kPa	1012.7
14942 kPa	1012.6
14959 kPa	1012.8
14974 kPa	1012.7
14993 kPa	1012.7
15008 kPa	1012.6
15024 kPa	1012.8
15042 kPa	1012.7
15058 kPa	1012.8
15074 kPa	1012.7
15090 kPa	1012.8
15108 kPa	1012.8
15124 kPa	1012.8
15140 kPa	1012.8
15159 kPa	1012.7
15175 kPa	1012.9
15190 kPa	1012.9
15209 kPa	1012.8
